Assays:
[1] = Efficacy of peracetylated beta cyclodextrin as HFA drug suspension stabiliser (phase separation recorded photographically); type: physicochemical; settings: peracetylated β cyclodextrin at saturation level, phase separation much slower, suspension much finer, head space adhesion less
Description: First, reference samples of pure drugs in HFAs were prepared. Then samples with solubilised peracetylated beta (β) cyclodextrin and micronised drug were prepared. The concentration of drug in these samples was the same as in the reference samples. The cyclodextrin concentration was at saturation level.
The reference samples (pure drug) were prepared by weighing the drug in a PET vial. A valve was then crimped on the vial and propellant added under pressure. The vial was then sonicated for at least 15 minutes and left to equilibrate for one week.
The drug—cyclodextrin samples were prepared by weighing a known amount of drug in a PET vial. The vial was then crimped with a continuous valve. The solution of peracetylated beta (β) cyclodextrin was prepared thus: a large amount of cyclodextrin was placed in large metallic can, it was crimped and filled with one of the propellants. This can was left to equilibrate for at least a week at room temperature. When equilibration was reached, the saturated cyclodextrin solution was filtered through a […] PTFE filter into the PET vials containing the known drug amounts. This way the maximum amount of soluble cyclodextrin was used in the suspensions. The concentration of drugs in the vials was then calculated through accurate recording of the weights of propellant/cyclodextrin added.
The phase separation phenomenon present in both samples (pure drug and with the cyclodextrin) was then recorded photographically.

[2] = Solubility of peracetylated cyclodextrins in HFA propellants, assessed visually; type: physicochemical; settings: equilibrated one week, visual; for solubility in HFA 134a: room temperature; for solubility in HFA 227: HFA 227, room temperature
Description: The solubility of peracetylated cyclodextrins (alpha, beta and gamma) in HFA propellants was assessed visually in clear PET vials crimped with a continuous pMDI valve. Known amounts of cyclodextrins were weighed into the PET vials. Continuous valves were crimped on the vial, and HFAs were added under pressure to the required amount. The samples were left to equilibrate over one week and were visually inspected. The solubility of the modified cyclodextrin at room temperature was evaluated by discriminating between samples that were clear by opposition to those samples that still had solid particles in suspension.

Compound | quality/stability of drug suspension with modified cyclodextrin versus pure drug sample ([1]; HFA 134a) | quality/stability of drug suspension with modified cyclodextrin versus pure drug sample ([1]; HFA 227) | solubility in HFA 134a [2] | solubility in HFA 227 [2]
CCCC1O[C@@H]2C[C@H]3[C@@H]4CCC5=CC(=O)C=C[C@]5(C)[C@H]4[C@@H](O)C[C@]3(C)[C@]2(C(=O)CO)O1 (some centres unmarked) [Budesonide] | improved | much improved |  | 
CC(C)(C)NCC(O)c1cc(O)cc(O)c1 (centres unmarked) [Terbutaline Sulphate] | much improved | far more stable |  | 
CC(=O)OCC1OC2OC3C(COC(C)=O)OC(OC4C(COC(C)=O)OC(OC5C(COC(C)=O)OC(OC6C(COC(C)=O)OC(OC7C(COC(C)=O)OC(OC1C(OC(C)=O)C2OC(C)=O)C(OC(C)=O)C7OC(C)=O)C(OC(C)=O)C6OC(C)=O)C(OC(C)=O)C5OC(C)=O)C(OC(C)=O)C4OC(C)=O)C(OC(C)=O)C3OC(C)=O (stereo not drawn) [peracetylated alpha (α) cyclodextrin] |  |  | above 1 % w/w | above 0.5 % w/w
peracetylated beta (β) cyclodextrin |  |  | above 1 % w/w | above 0.1 % w/w

Reference: patent US20070104652A1, “Pharmaceutical spray formulation comprising a hydro fluor alkane and an acylated cyclodextrin” (priority 2003, published 2007)
